This note sets out measurements from US9085576B2 (AMGEN INC., priority 2013, dated 2015).

By IC50 is commonly meant the midpoint of a concentration-inhibition curve.

Molecules are shown by their SMILES.

Experiment [1] has as its target Beta Secretase enzyme (BACE) (Homo sapiens (Human), UniProt P56817). Kind of experiment: In vitro enzymatic BACE FRET assay. The class given is biochemical. The note with it: read-out: BACE1 Enzyme assay IC50.
The target of experiment [2] is Cathepsin D (Cat D) (Homo sapiens (Human), UniProt P07339). Description: In vitro enzymatic Cathepsin D (Cat D) FRET assay. The experiment is classed as biochemical. The note with it: read-out: CatD IC50.
Cathepsin D (Cat D), sequence (P07339 65-412, species assumed): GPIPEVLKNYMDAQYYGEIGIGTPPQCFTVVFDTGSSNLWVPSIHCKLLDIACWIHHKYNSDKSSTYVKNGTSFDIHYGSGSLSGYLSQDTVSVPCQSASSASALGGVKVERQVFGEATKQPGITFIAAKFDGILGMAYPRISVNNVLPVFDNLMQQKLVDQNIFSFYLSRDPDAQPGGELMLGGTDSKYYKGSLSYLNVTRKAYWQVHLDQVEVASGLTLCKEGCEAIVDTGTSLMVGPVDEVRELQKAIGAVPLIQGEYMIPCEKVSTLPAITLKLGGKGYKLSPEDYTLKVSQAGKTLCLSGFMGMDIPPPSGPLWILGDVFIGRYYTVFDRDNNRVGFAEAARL
The target in experiment [3] is BACE (Homo sapiens (Human), UniProt P56817). Description: In vitro BACE cell-based assay (Aβ40 in conditioned medium, sandwich ELISA). A general note: An ELISA detects its analyte on a solid surface through an enzyme-linked reagent.
BACE, sequence (P56817 46-501, species assumed): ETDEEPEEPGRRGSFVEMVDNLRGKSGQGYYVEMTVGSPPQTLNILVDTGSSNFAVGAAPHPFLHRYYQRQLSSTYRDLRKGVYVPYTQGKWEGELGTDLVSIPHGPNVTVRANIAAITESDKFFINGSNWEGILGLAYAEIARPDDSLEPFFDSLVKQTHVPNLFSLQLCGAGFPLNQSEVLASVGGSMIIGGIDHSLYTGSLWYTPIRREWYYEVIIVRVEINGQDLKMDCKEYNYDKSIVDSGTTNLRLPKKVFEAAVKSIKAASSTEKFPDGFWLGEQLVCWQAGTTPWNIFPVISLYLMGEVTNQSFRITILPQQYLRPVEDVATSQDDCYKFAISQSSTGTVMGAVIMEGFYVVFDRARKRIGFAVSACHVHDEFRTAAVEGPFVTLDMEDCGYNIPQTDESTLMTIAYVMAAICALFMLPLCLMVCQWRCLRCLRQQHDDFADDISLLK

Beta Secretase enzyme (BACE), sequence (P56817 46-501): as the sequence (P56817 46-501, species assumed) above

`NC1=N[C@@](c2cc(NC[C@@H]3C[C@H]3c3ccccc3)ccc2F)(C(F)F)[C@H]2C[C@H]2O1` [Example 371, (1R,5S,6R)-5-(difluoromethyl)-5-(2-fluoro-5-((((l(S,R),2(S,R))-2-phenylcyclopropyl)methyl)amino)phenyl)-2-oxa-4-azabicyclo[4.1.0]hept-3-en-3-amine]: the 50% inhibitory concentration (IC50) in experiment [1] was 11.2 µM; in experiment [2], 102 µM; in experiment [3], 2.67 µM.
As for `NC1=N[C@@](c2cc(NC[C@H]3C[C@H]3c3ccccc3)ccc2F)(C(F)F)[C@H]2C[C@H]2O1` [Example 372, (1R,5S,6R)-5-(difluoromethyl)-5-(2-fluoro-5-((((1(S,R),2(R,S))-2-phenylcyclopropyl)methyl)amino)phenyl)-2-oxa-4-azabicyclo[4.1.0]hept-3-en-3-amine], the IC50 in experiment [1] was 9.42 µM; in experiment [2] it was 85.5 µM; in experiment [3] it was 4.94 µM.
For `C=C1CC(CNc2ccc(F)c([C@@]3(C(F)F)N=C(N)O[C@@H]4C[C@@H]43)c2)C1` [Example 375, (1R,5S,6R)-5-(difluoromethyl)-5-(2-fluoro-5-(((3-methylenecyclobutyl)methyl)amino)phenyl)-2-oxa-4-azabicyclo[4.1.0]hept-3-en-3-amine] the same measures were 6 µM, 78.9 µM and 2.53 µM.
The like results for `NC1=N[C@@](c2cc(NCC3(C(F)(F)F)CC3)ccc2F)(C(F)F)[C@H]2C[C@H]2O1` [Example 376, (1R,5S,6R)-5-(difluoromethyl)-5-(2-fluoro-5-(((1-(trifluoromethyl)cyclopropyl)methyl)amino)phenyl)-2-oxa-4-azabicyclo[4.1.0]hept-3-en-3-amine] were, in that order, 2.1 µM, 52.9 µM and 1.15 µM.
The like results for `NC1=N[C@@](c2cc(NCc3ccc(Cl)cn3)ccc2F)(C(F)F)[C@H]2C[C@H]2O1` [Example 377, (1R,5S,6R)-5-(5-(((5-chloropyridin-2-yl)methyl)amino)-2-fluorophenyl)-5-(difluoromethyl)-2-oxa-4-azabicyclo[4.1.0]hept-3-en-3-amine] were, in that order, 2.85 µM, 177 µM and 1.11 µM.
With `NC1=N[C@@](c2cc(NCC3CC3)ccc2F)(C(F)F)[C@H]2C[C@H]2O1` [Example 379, (1R,5S,6R)-5-(5-((cyclopropylmethyl)amino)-2-fluorophenyl)-5-(difluoromethyl)-2-oxa-4-azabicyclo[4.1.0]hept-3-en-3-amine], the results for the 50% inhibitory concentration (IC50) in experiment [1], in experiment [2] and in experiment [3] were 1.41 µM, 188 µM and 0.564 µM, respectively.
As to `COCc1cc(C#N)cnc1C(=O)Nc1ccc(Cl)c([C@@]2(CF)N=C(N)O[C@@H]3C[C@@H]32)c1` [Example 386, N-(3-((1R,5S,6R)-3-amino-5-(fluoromethyl)-2-oxa-4-azabicyclo[4.1.0]hept-3-en-5-yl)-4-chlorophenyl)-5-cyano-3-(methoxymethyl)picolinamide], the IC50 in experiment [1] was determined as 0.0251 µM; in experiment [2], 1820 µM; in experiment [3], 0.0085 µM.
For `N#Cc1cnc(C(=O)Nc2ccc(Cl)c([C@@]3(CF)N=C(N)O[C@@H]4C[C@@H]43)c2)c(CO)c1` [Example 387, N-(3-((1R,5S,6R)-3-amino-5-(fluoromethyl)-2-oxa-4-azabicyclo[4.1.0]hept-3-en-5-yl)-4-chlorophenyl)-5-cyano-3-(hydroxymethyl)picolinamide] the same measures were 0.0391 µM, 352 µM and 0.0145 µM.
The like results for `CN(C)c1cc(C#N)cnc1C(=O)Nc1ccc(F)c([C@@]2(C(F)F)N=C(N)O[C@@H]3C[C@@H]32)c1` [Example 389, N-(3-((1R,5S,6R)-3-amino-5-(difluoromethyl)-2-oxa-4-azabicyclo[4.1.0]hept-3-en-5-yl)-4-fluorophenyl)-5-cyano-3-(dimethylamino)picolinamide] were, in that order, 0.0915 µM, 732 µM and 0.0747 µM.
The like results for `N#Cc1cnc2c(Nc3ccc(F)c([C@@]4(CF)N=C(N)O[C@@H]5C[C@@H]54)c3)ncnc2c1` [Example 393, 4-((3-((1R,5S,6R)-3-amino-5-(fluoromethyl)-2-oxa-4-azabicyclo[4.1.0]hept-3-en-5-yl)-4-fluorophenyl)amino)pyrido[3,2-d]pyrimidine-7-carbonitrile] were, in that order, 0.198 µM, 147 µM and 0.0243 µM.
As to `CC(C)c1cc(C#N)cnc1C(=O)Nc1ccc(F)c([C@@]2(C(F)F)N=C(N)O[C@@H]3C[C@@H]32)c1` [Example 394, N-(3-((1R,5S,6R)-3-amino-5-(difluoromethyl)-2-oxa-4-azabicyclo[4.1.0]hept-3-en-5-yl)-4-fluorophenyl)-5-cyano-3-isopropylpicolinamide], the IC50 in experiment [1] stood at 0.134 µM; in experiment [2], 1070 µM; in experiment [3], 0.289 µM.
The like results for `N#Cc1cnc(C(=O)Nc2ccc(F)c([C@@]3(C(F)F)N=C(N)O[C@@H]4C[C@@H]43)c2)c(C(F)F)c1` [Example 395, N-(3-((1R,5S,6R)-3-amino-5-(difluoromethyl)-2-oxa-4-azabicyclo[4.1.0]hept-3-en-5-yl)-4-fluorophenyl)-5-cyano-3-(difluoromethyl)picolinamide] were, in that order, 0.0144 µM, 477 µM and 0.0737 µM.
The like results for `N#Cc1cnc(C(=O)Nc2ccc(F)c([C@@]3(C(F)F)N=C(N)O[C@@H]4C[C@@H]43)c2)c(CO)c1` [Example 396, N-(3-((1R,5S,6R)-3-amino-5-(difluoromethyl)-2-oxa-4-azabicyclo[4.1.0]hept-3-en-5-yl)-4-fluorophenyl)-5-cyano-3-(hydroxymethyl)picolinamide] were, in that order, 0.017 µM, 198 µM and 0.151 µM.
Consider `COc1cc(C#N)cnc1C(=O)Nc1ccc(Cl)c([C@@]2(CF)N=C(N)O[C@@H]3C[C@@H]32)c1` [Example 397, N-(3-((1R,5S,6R)-3-amino-5-(fluoromethyl)-2-oxa-4-azabicyclo[4.1.0]hept-3-en-5-yl)-4-chlorophenyl)-5-cyano-3-methoxypicolinamide], for which the figures for the IC50 in experiment [1], in experiment [2] and in experiment [3] were 0.081 µM, more than 400 µM and 0.009 µM, respectively.
For `Cc1cc(NC(=O)c2ncc(C#N)cc2F)cc([C@@]2(C(F)F)N=C(N)O[C@@H]3C[C@@H]32)c1F` [Example 398, N-(3-((1R,5S,6R)-3-amino-5-(difluoromethyl)-2-oxa-4-azabicyclo[4.1.0]hept-3-en-5-yl)-4-fluoro-5-methylphenyl)-5-cyano-3-fluoropicolinamide] the same measures were 0.0335 µM, 690 µM and 0.0123 µM.
As for `COc1cc(C#N)cnc1C(=O)Nc1cc(C)c(F)c([C@@]2(C(F)F)N=C(N)O[C@@H]3C[C@@H]32)c1` [Example 399, N-(3-((1R,5S,6R)-3-amino-5-(difluoromethyl)-2-oxa-4-azabicyclo[4.1.0]hept-3-en-5-yl)-4-fluoro-5-methylphenyl)-5-cyano-3-methoxypicolinamide], the values for the IC50 in experiment [1], in experiment [2] and in experiment [3] were 0.0706 µM, 1090 µM and 0.0208 µM, respectively.
The like results for `NC1=N[C@@](c2cc(NC(=O)c3ccc(C#CC4CC4)cn3)ccc2F)(C(F)F)[C@H]2C[C@H]2O1` [Example 405, N-(3-((1R,5S,6R)-3-amino-5-(difluoromethyl)-2-oxa-4-azabicyclo[4.1.0]hept-3-en-5-yl)-4-fluorophenyl)-5-(cyclopropylethynyl)picolinamide] were, in that order, 0.0237 µM, 399 µM and 0.215 µM.
The like results for `NC1=N[C@@](c2cc(Nc3nccc4cc(C#CC5CC5)cnc34)ccc2F)(C(F)F)[C@H]2C[C@H]2O1` [Example 406, (1R,5S,6R)-5-(5-((3-(cyclopropylethynyl)-1,7-naphthyridin-8-yl)amino)-2-fluorophenyl)-5-(difluoromethyl)-2-oxa-4-azabicyclo[4.1.0]hept-3-en-3-amine] were, in that order, 0.0759 µM, 8910 µM and 0.861 µM.
For `NC1=N[C@@](c2cc(NC(=O)c3cnc(C#CC4CC4)cn3)ccc2F)(C(F)F)[C@H]2C[C@H]2O1` [Example 407, N-(3-((1R,5S,6R)-3-amino-5-(difluoromethyl)-2-oxa-4-azabicyclo[4.1.0]hept-3-en-5-yl)-4-fluorophenyl)-5-(cyclopropylethynyl)pyrazine-2-carboxamide] the same measures were 0.0296 µM, 170 µM and 0.301 µM.
Regarding `NC1=N[C@@](c2cc(Nc3ncc(F)c4cc(C#CC5CC5)cnc34)ccc2F)(C(F)F)[C@H]2C[C@H]2O1` [Example 408, (1R,5S,6R)-5-(5-((3-(cyclopropylethynyl)-5-fluoro-1,7-naphthyridin-8-yl)amino)-2-fluorophenyl)-5-(difluoromethyl)-2-oxa-4-azabicyclo[4.1.0]hept-3-en-3-amine], the IC50 was determined as 0.0463 µM in experiment [1], 347 µM in experiment [2] and 1.58 µM in experiment [3].
For `CC1(C#Cc2ccc(C(=O)Nc3ccc(F)c([C@@]4(C(F)F)N=C(N)O[C@@H]5C[C@@H]54)c3)nc2)COC1` [Example 409, N-(3-((1R,5S,6R)-3-amino-5-(difluoromethyl)-2-oxa-4-azabicyclo[4.1.0]hept-3-en-5-yl)-4-fluorophenyl)-5-((3-methyloxetan-3-yl)ethynyl)picolinamide] the same measures were 0.327 µM, 748 µM and 0.514 µM.
The like results for `NC1=N[C@@](c2cc(NC(=O)c3cnc(OCC#CC4CC4)cn3)ccc2F)(C(F)F)[C@H]2C[C@H]2O1` [Example 411, N-(3-((1R,5S,6R)-3-amino-5-(difluoromethyl)-2-oxa-4-azabicyclo[4.1.0]hept-3-en-5-yl)-4-fluorophenyl)-5-((3-cyclopropylprop-2-yn-1-yl)oxy)pyrazine-2-carboxamide] were, in that order, 0.0076 µM, 360 µM and 0.112 µM.
